Experiment [1] has as its system SK-RC-52.hFAP renal cell carcinoma xenografts. Put plainly: Ex vivo targeting experiment, SK-RC-52.hFAP xenografts. Format: in vivo, BALB/C nu/nu mice. To be noted: 40 nmol intravenous, ex vivo organ images 1 h. The procedure: SK-RC-52.hFAP cells were grown to 80% confluence and detached with Trypsin-EDTA 0.05%. Cells were re-suspended in HBSS medium to a final concentration of 5×10^7 cells/mL.
Mice bearing subcutaneous SK-RC-52.hFAP tumour was injected intravenously with conjugate 15 (40 nmol in sterile PBS, pH 7.4). Animals were sacrificed by CO2 asphyxiation 1h after the intravenous injection and the organs and the tumour were excised, snap-frozen in OCT medium and stored at −80° C. Cryostat sections ([…]) were cut and nuclei were stained with Fluorescence Mounting Medium (Dako Omnis, Agilent). Images were obtained using an Axioskop2 mot plus microscope (Zeiss) and analyzed by ImageJ 1.53 software.

Another experiment concerns HT-1080 Wild type. Description: Confocal microscopy on HT-1080 wild type. The format is cell-based. To be noted: negative control cells. The procedure:
HT-1080.hFAP and HT-1080 cells were seeded into 4-well cover slip chamber plates at a density of 10^4 cells per well in DMEM medium (1 mL) supplemented with 10% FCS, AA and HEPES (10 mM) and allowed to grow for 24 hours under standard culture conditions. Hoechst 33342 nuclear dye was used to stain nuclear structures.
The culture medium was replaced with fresh medium containing conjugate 15 (100 nM). Randomly selected colonies imaged on a SP8 confocal microscope equipped with an AOBS device (Leica Microsystems).

The next experiment has as its target T1, murine FAP (Mus musculus, UniProt P97321).
T1 sequence (P97321 1-761): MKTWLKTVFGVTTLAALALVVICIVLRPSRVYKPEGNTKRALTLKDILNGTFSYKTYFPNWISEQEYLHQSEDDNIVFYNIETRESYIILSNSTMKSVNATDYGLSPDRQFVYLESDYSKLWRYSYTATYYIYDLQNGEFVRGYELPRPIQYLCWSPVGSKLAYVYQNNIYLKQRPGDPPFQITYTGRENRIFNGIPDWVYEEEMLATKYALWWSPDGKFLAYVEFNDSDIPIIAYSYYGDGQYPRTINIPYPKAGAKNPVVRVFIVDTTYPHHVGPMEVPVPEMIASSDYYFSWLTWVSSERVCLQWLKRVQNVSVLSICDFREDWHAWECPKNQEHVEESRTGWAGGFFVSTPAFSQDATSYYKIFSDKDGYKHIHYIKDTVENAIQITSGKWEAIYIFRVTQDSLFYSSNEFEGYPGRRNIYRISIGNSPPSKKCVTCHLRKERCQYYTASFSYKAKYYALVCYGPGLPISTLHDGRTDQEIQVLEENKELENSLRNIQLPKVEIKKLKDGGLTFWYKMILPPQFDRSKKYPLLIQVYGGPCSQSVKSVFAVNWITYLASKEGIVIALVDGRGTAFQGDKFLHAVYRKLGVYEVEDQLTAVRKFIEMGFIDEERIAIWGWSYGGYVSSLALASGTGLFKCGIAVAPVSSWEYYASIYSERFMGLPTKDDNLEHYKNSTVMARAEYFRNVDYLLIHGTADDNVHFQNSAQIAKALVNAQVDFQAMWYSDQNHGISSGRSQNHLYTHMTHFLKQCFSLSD
Put plainly: Affinity measurement to murine FAP by fluorescence polarization. The format is binding. The conditions noted are these: binder 10 nM, read-out: KD to mFAP. The procedure: Fluorescence polarization experiments were performed in 384-well plates (non-binding, ps, f-bottom, black, high volume, 30 μL final volume). Stock solutions of human FAP (4 μM) and murine FAP (5 μM) were serially diluted with buffer (50 mM Tris, 100 mM NaCl, 1 mM EDTA, pH=7.4), while the final concentration of the binders was kept constant at 10 nM. The fluorescence anisotropy was measured on a TECAN microtiter plate reader. Experiments were performed in triplicate and the mean anisotropy values fitted using Prism 7.

For a further experiment, the target named is T2, mFAP (Mus musculus, UniProt P97321).
T2 sequence (P97321 1-761): T1 sequence (P97321 1-761)
Put plainly: Chromatographic co-elution (PD-10) of ligand-protein complexes, mFAP. The format is binding, murine. To be noted: PD-10 column, mFAP 5 μM. Here is the method:
A PD-10 column was pre-equilibrated with assay buffer (50 mM Tris, 100 mM NaCl, 1 mM EDTA, pH=7.4) prior to the loading of the complex. A mixture of different proteins (hFAP=2 μM, mFAP=5 μM) and conjugate 15 (100 nM) were incubated and loaded on the column. The mixture was flushed using the assay buffer. The flow through was collected in 96-well plates and the fluorescence intensity was measured immediately on a TECAN microtiter plate reader, monitoring the fluorescence at an excitation wavelength of 485 nm and an emission wavelength of 535 nm. The concentration of the proteins was estimated by measuring the absorbance at 280 nm using a Nanodrop 2000/2000c spectrophotometer.

This note sets out measurements from patent publication US20230147962A1, “FIBROBLAST ACTIVATION PROTEIN LIGANDS FOR TARGETED DELIVERY APPLICATIONS” (PHILOCHEM AG, priority 2020, published 2023).

*1 amine or outer side, *2 acyl side, *3 side chain or, on linkers, in order; H or OH if unused. Where a SMILES comes first, the peptide text is derived from it. The star is where a group is joined. Fluorescein(5-Mal) = O=C1OC2(c3ccc(O)cc3Oc3cc(O)ccc32)c2ccc(N3C(=O)CC(*)C3=O)cc21; X1 = N#C[C@@H]1CC(F)(F)CN1C(=O)CNC(=O)c1ccnc2c(N*)cccc12; Suc = O=C(CCC(=O)[*:2])[*:1]

In the case of `N#C[C@@H]1CC(F)(F)CN1C(=O)CNC(=O)c1ccnc2c(NC(=O)CCC(=O)N[C@@H](CC(=O)O)C(=O)N[C@@H](CCCCN)C(=O)N[C@@H](CC(=O)O)C(=O)N[C@@H](CSC3CC(=O)N(c4ccc5c(c4)C(=O)OC54c5ccc(O)cc5Oc5cc(O)ccc54)C3=O)C(=O)O)cccc12` (stereo partly drawn) [Conjugate 15, (2R,5S,8S,11S)-8-(4-aminobutyl)-5,11-bis(carboxymethyl)-16-((4-((2-((S)-2-cyano-4,4-difluoropyrrolidin-1-yl)-2-oxoethyl)carbamoyl)quinolin-8-yl)amino)-2-(((1-(3′,6′-dihydroxy-3-oxo-3H-spiro[isobenzofuran-1,9′-xanthen]-5-yl)-2,5-dioxopyrrolidin-3-yl)thio)methyl)-4,7,10,13,16-pentaoxo-3,6,9,12-tetraazahexadecanoic acid] ({X1-Suc}-DKDC(Fluorescein(5-Mal))-OH), in experiment [1], the “targeting performance in SK-RC-52.hFAP xenografts” value was “rapidly and homogeneously localizes at the tumour site in vivo 1 hour after the intravenous injection, with a high tumour-to-organs selectivity”. Further, the “accumulation on HT-1080 Wild type cells” value in the experiment on HT-1080 Wild type was “no accumulation on the cell membrane and in the cytosol”. Moreover, the Kd at murine FAP turned out to be 11.6 nM. Further, on mFAP, the “complex formation with mFAP in PD-10 co-elution” value is on record as “stable complex is formed”.
